Assay results from PubChem BioAssay (NCI).
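In this assay, cells in 96-well plates receive the compound at five concentrations for 48 hours. Endpoints are linearly interpolated between the surrounding concentrations. TGI is the concentration that stops growth completely.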

Experiments:
Test in all cases: NCI tumour cell line growth inhibition, 48 h
A498 renal = system: A498 renal
DLD-1 colon = system: DLD-1 colon
DMS 114 small cell lung = system: DMS 114 small cell lung
DMS 273 small cell lung = system: DMS 273 small cell lung
HCT-15 colon = system: HCT-15 colon
HOP-18 NSCLC = system: HOP-18 NSCLC
KM20L2 colon = system: KM20L2 colon
LXFL 529 NSCLC = system: LXFL 529 NSCLC
M14 melanoma = system: M14 melanoma
M19-MEL melanoma = system: M19-MEL melanoma
OVCAR-4 ovarian = system: OVCAR-4 ovarian
RXF-631 renal = system: RXF-631 renal
SNB-78 CNS = system: SNB-78 CNS
MOLT-4 leukemia = system: MOLT-4 leukemia
XF 498 CNS = system: XF 498 CNS
HS 578T breast = system: HS 578T breast

Row | SMILES | TGI (A498 renal) [µM] | TGI (DLD-1 colon) [µM] | TGI (DMS 114 small cell lung) [µM] | TGI (DMS 273 small cell lung) [µM] | TGI (HCT-15 colon) [µM] | TGI (HOP-18 NSCLC) [µM] | TGI (KM20L2 colon) [µM] | TGI (LXFL 529 NSCLC) [µM] | TGI (M14 melanoma) [µM] | TGI (M19-MEL melanoma) [µM] | TGI (OVCAR-4 ovarian) [µM] | TGI (RXF-631 renal) [µM] | TGI (SNB-78 CNS) [µM] | TGI (MOLT-4 leukemia) [µM] | TGI (XF 498 CNS) [µM] | TGI (HS 578T breast) [µM]
1 | CCOC(OCC)c1ccc(/C=C/c2cc(OC)c(OC)c(OC)c2)cc1 | 45.4 | 38.8 | 50.2 | 41.3 | 30.7 | > 100 | 41.8 | 41.7 | 31.9 | 37 | 68.1 | 70.7 | 87.9 | – | – | –
2 | COC1=CC(C2c3cc4c(cc3[C@@H](Nc3ccc([N+](=O)[O-])cc3)C3COC(=O)[C@H]23)OCO4)=CC(=O)C1=O (some centres undefined) | 6.23 | > 96.7 | 8.28 | 5.12 | 34.1 | > 100 | > 62.6 | > 78.7 | > 37.7 | 45.2 | > 100 | 14.1 | > 100 | 10.5 | 50.7 | –
3 | CC(NC(=O)/C(C#N)=C/c1ccc2[nH]ccc2c1)c1ccccc1 (centres undefined) | 32.1 | 34.5 | 37.6 | 40.7 | 27.6 | 53.3 | 33.2 | 41.4 | 37.2 | – | 49.5 | – | 90.4 | 52.3 | – | 66.4
4 | COC(=O)[C@H]1C=C[C@@H](C)n2c(=O)c3ccccc3c(=O)n21 | > 100 | > 100 | > 100 | > 100 | > 100 | – | > 100 | > 100 | > 100 | > 100 | > 100 | – | > 100 | > 100 | > 100 | –
5 | O=C1C(Cl)C(c2ccc(Cl)cc2)N1n1cnc2ccccc2c1=O (centres undefined) | – | > 100 | > 100 | > 100 | > 100 | > 100 | > 100 | > 100 | > 100 | > 100 | > 100 | – | > 100 | > 100 | > 100 | –
6 | CC(=O)OC1OC2C(NC(=O)OC(C)(C)C)C1CC2(OCc1ccccc1)OCc1ccccc1 (centres undefined) | > 82.9 | – | 58 | 69.5 | > 100 | 46.5 | 39.3 | > 100 | 50.6 | > 74.1 | – | > 100 | > 100 | 62.9 | 41.9 | –
7 | NC(=O)c1csc(CCCCCCc2nc(C(N)=O)cs2)n1 | > 100 | > 100 | > 100 | > 100 | > 100 | > 100 | > 100 | > 100 | > 100 | 49.3 | > 100 | > 100 | > 100 | > 100 | – | –
8 | COc1ccc(C2CCC(Cl)(OC)CC2C=O)cc1 (centres undefined) | > 100 | > 100 | 66.7 | > 100 | > 100 | > 100 | > 100 | > 100 | > 100 | > 100 | > 100 | – | – | > 100 | – | –
9 | Cc1nccc2c1cnc1ccnn12 | > 100 | > 100 | > 100 | > 100 | > 100 | – | > 100 | > 100 | > 100 | > 100 | > 100 | > 100 | > 100 | > 100 | – | –
